Molecules are shown by their SMILES.

Data on 1 compound can be found in paper PMC12333015, “Profiling the Impact of mGlu7/Elfn1 Protein Interactions on the Pharmacology of mGlu7 Allosteric Modulators” (ACS Chemical Neuroscience, 2025).

The subject of the experiment is pyramidal cell to SST-IN synapses in the prefrontal cortex. Briefly: Ex vivo whole-cell electrophysiology, eEPSCs recorded from SST-INs in prefrontal cortex slices. Conditions: 30 μM L-AP4 alone, bath applied. Format: cell-based, mouse. An excerpt: Shown in Figure A are representative traces of eEPSCs recorded from SST-INs in response to 5-pulse stimulation with baseline in black, illustrating the characteristic facilitating nature of pyramidal cell (PYR) to SST-IN synapses.
Transgenic mice (both male and female) expressing tdTomato fluorescent protein in SST-INs were used in this study. They were generated by crossing female homozygous SST-Cre (Sst^tm2.1(cre)Zjh/J, Stock #: 013044, Jackson Laboratories) with male homozygous Ai9 mice (B6;Cg-Gt(Rosa)-26Sor^tm9(CAG‑tdTomato)Hze/J, Stock #: 007909, Jackson Laboratories). All animals were group housed with food and water available ad libitum, kept under a 12 h light/dark cycle with lights on from 6:00 AM to 6:00 PM, and were used for experiments during the light phase. All of the experimental procedures were approved by the Vanderbilt University Animal Care and Use committee and followed the guidelines set forth by the Guide for the Care and Use of Laboratory Animals. […] Whole cell recordings were made from visually identified, fluorescence-labeled SST-INs in layer V of PFC slices under the upright microscope. […] Excitatory postsynaptic currents (EPSCs) were recorded from layer V SST-INs at a holding potential of −80 mV and evoked by electrical stimulation (100 μs duration, applied every 15 s) through a concentric bipolar stimulating electrode placed around 100–150 μm from the recorded cell. The holding potential of −80 mV under voltage clamp is closed to the calculated reversal potential of Cl^– and thus the EPSCs recorded in the present studies had minimal GABAA-mediated component. Electrical stimulation applied near the recorded cell in the cortex presumably activates the local neurons preferentially. […] Data were analyzed using Clampfit 10 (Molecular Devices), Excel (Microsoft), and Prism (GraphPad Software), and presented as mean ± SEM. […]

`N[C@@H](CCP(=O)(O)O)C(=O)O` [L-AP4, L-2-amino-4-phosphonobutyric acid, reference compound]: the “effect on eEPSC amplitude” value is given as “reduced eEPSC amplitude”.
